In ChEMBL document CHEMBL5725601, “Tetrahydroisoquinoline derivatives useful as inhibitors of diacylglyceride O-acyltransferase 2” (2018):

Target: T1, Diacylglycerol O-acyltransferase 2 (Homo sapiens, UniProt Q96PD7)
T1 sequence (Q96PD7 whole entry): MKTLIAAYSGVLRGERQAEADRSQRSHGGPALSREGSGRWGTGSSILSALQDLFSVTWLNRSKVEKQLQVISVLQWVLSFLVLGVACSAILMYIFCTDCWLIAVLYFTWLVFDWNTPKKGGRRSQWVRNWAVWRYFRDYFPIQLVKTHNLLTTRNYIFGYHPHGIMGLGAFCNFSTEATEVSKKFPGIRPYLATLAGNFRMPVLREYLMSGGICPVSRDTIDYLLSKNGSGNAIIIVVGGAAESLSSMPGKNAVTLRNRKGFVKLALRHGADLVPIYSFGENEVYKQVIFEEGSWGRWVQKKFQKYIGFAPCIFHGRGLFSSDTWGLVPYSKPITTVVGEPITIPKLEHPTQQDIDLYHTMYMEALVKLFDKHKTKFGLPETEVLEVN
Experiment: Enzymatic Activity Assay: DGAT2 activity was determined by measuring the amount of enzymatic product triolein (1,2,3-Tri(cis-9-octadecenoyl)glycerol) using the membrane prep mentioned above. The assay was carried out in deep well 384 plates in a final volume of 40 μL at room temperature. The assay mixture contained the following: assay buffer (100 mM Tris·Cl, pH 7.0, 20 mM MgCl2, 5% ethanol), 25 μM of diolein, 10 μM of oleoyl-CoA and 10 ng/μL of DGAT2 membrane.

SMILES | IC50
CC(C)(C)NC(=O)N1CCc2c(-c3cccc(C(F)(F)F)c3)ccc(C(=O)NCc3nc(-c4ccccn4)no3)c2C1 | 588 nM
CC(C)(C)NC(=O)N1CCc2c(-c3cccc(C(F)(F)F)c3)ccc(C(=O)NCc3noc(-c4ccccc4)n3)c2C1 | 326 nM
